{"source": "PubChem BioAssay AID2060607", "about": "(Molecular Pharmacology Branch, DTP, NCI, 2025)", "tested_on": "876862-298-R-J1-PDC complex spheroids, viability % test/control", "assay": "Anticancer human tumor 876862-298-R-J1-PDC patient-derived endometrial carcinoma cell line growth inhibition [CLK]", "settings": "for viability, T/C: stronger effect = lower value", "in_short": "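Multi-cell-type spheroids combined patient-derived tumor cells with HUVEC endothelial cells and human mesenchymal stem cells. Paired agents were dosed in half-log steps down from about clinical Cmax, or from 10 microM where Cmax was unknown.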", "key": {"[1]": {"settings": "curve of first compound, second compound 0.0316 µM"}, "[2]": {"settings": "curve of first compound, second compound 0.1 µM"}, "[3]": {"settings": "curve of first compound, second compound 0.316 µM"}, "[4]": {"settings": "curve of first compound, second compound 1 µM"}, "[5]": {"settings": "curve of first compound, second compound 3.16 µM"}, "[6]": {"settings": "curve of first compound, second compound 10 µM"}}, "note": "Where “and” joins values, the source holds several entries; their conditions need not be identical. Equal values may be shown once.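 Further: spheroids exposed to drugs for 7 days before readout.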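 Wherever viability, T/C is given: 100% = DMSO vehicle control wells.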"}
{"smiles": "CC(C)CC(NC(=O)C(Cc1ccccc1)NC(=O)c1cnccn1)B(O)O", "note": "(stereo unspecified) + CNC(=O)c1ccc(Nc2nc(OC3CCCC3)c3c(-c4ccc5nc(C)oc5c4)c[nH]c3n2)c(OC)c1", "values": [{"measurement": "IC50", "setting": "[1]", "result": 1.53, "unit": "nM"}, {"measurement": "IC50", "setting": "[2]", "result": "< 0.949", "unit": "nM"}, {"measurement": "IC50", "setting": "[3]", "result": "< 0.949", "unit": "nM"}, {"measurement": "IC50", "setting": "[4]", "result": "< 0.949", "unit": "nM"}, {"measurement": "IC50", "setting": "[5]", "result": "< 0.949", "unit": "nM"}, {"measurement": "IC50", "setting": "[6]", "result": "< 0.949", "unit": "nM"}, {"measurement": "viability, T/C", "setting": "second compound 0.0316 µM, first compound 0.000949 µM", "result": 78.1, "unit": "%"}, {"measurement": "viability, T/C", "setting": "second compound 0.0316 µM, first compound 0.003 µM", "result": 10.6, "unit": "%"}, {"measurement": "viability, T/C", "setting": "second compound 0.0316 µM, first compound 0.00949 µM", "result": 0.67, "unit": "%"}, {"measurement": "viability, T/C", "setting": "second compound 0.0316 µM, first compound 0.03 µM", "result": 0.44, "unit": "%"}, {"measurement": "viability, T/C", "setting": "second compound 0.0316 µM, first compound 0.0949 µM", "result": 1.97, "unit": "%"}, {"measurement": "viability, T/C", "setting": "second compound 0.0316 µM, first compound 0.3 µM", "result": 1.37, "unit": "%"}, {"measurement": "viability, T/C", "setting": "second compound 0.1 µM, first compound 0.000949 µM", "result": 47.3, "unit": "%"}, {"measurement": "viability, T/C", "setting": "second compound 0.1 µM, first compound 0.003 µM", "result": 7.8, "unit": "%"}, {"measurement": "viability, T/C", "setting": "second compound 0.1 µM, first compound 0.00949 µM", "result": 0.68, "unit": "%"}, {"measurement": "viability, T/C", "setting": "second compound 0.1 µM, first compound 0.03 µM", "result": 0.53, "unit": "%"}, {"measurement": "viability, T/C", "setting": "second compound 0.1 µM, first compound 0.0949 µM", "result": 1.95, "unit": "%"}, {"measurement": "viability, T/C", "setting": "second compound 0.1 µM, first compound 0.3 µM", "result": 0.42, "unit": "%"}, {"measurement": "viability, T/C", "setting": "second compound 0.316 µM, first compound 0.000949 µM", "result": 43.2, "unit": "%"}, {"measurement": "viability, T/C", "setting": "second compound 0.316 µM, first compound 0.003 µM", "result": 5.92, "unit": "%"}, {"measurement": "viability, T/C", "setting": "second compound 0.316 µM, first compound 0.00949 µM", "result": 1.95, "unit": "%"}, {"measurement": "viability, T/C", "setting": "second compound 0.316 µM, first compound 0.03 µM", "result": 0.56, "unit": "%"}, {"measurement": "viability, T/C", "setting": "second compound 0.316 µM, first compound 0.0949 µM", "result": 1.66, "unit": "%"}, {"measurement": "viability, T/C", "setting": "second compound 0.316 µM, first compound 0.3 µM", "result": 0.96, "unit": "%"}, {"measurement": "viability, T/C", "setting": "second compound 1 µM, first compound 0.000949 µM", "result": 38.4, "unit": "%"}, {"measurement": "viability, T/C", "setting": "second compound 1 µM, first compound 0.003 µM", "result": 4.5, "unit": "%"}, {"measurement": "viability, T/C", "setting": "second compound 1 µM, first compound 0.00949 µM", "result": 0.69, "unit": "%"}, {"measurement": "viability, T/C", "setting": "second compound 1 µM, first compound 0.03 µM", "result": 0.62, "unit": "%"}, {"measurement": "viability, T/C", "setting": "second compound 1 µM, first compound 0.0949 µM", "result": 1.84, "unit": "%"}, {"measurement": "viability, T/C", "setting": "second compound 1 µM, first compound 0.3 µM", "result": 0.22, "unit": "%"}, {"measurement": "viability, T/C", "setting": "second compound 3.16 µM, first compound 0.000949 µM", "result": 27.6, "unit": "%"}, {"measurement": "viability, T/C", "setting": "second compound 3.16 µM, first compound 0.003 µM", "result": 3.22, "unit": "%"}, {"measurement": "viability, T/C", "setting": "second compound 3.16 µM, first compound 0.00949 µM", "result": 0.41, "unit": "%"}, {"measurement": "viability, T/C", "setting": "second compound 3.16 µM, first compound 0.03 µM", "result": 0.44, "unit": "%"}, {"measurement": "viability, T/C", "setting": "second compound 3.16 µM, first compound 0.0949 µM", "result": 1.98, "unit": "%"}, {"measurement": "viability, T/C", "setting": "second compound 3.16 µM, first compound 0.3 µM", "result": 1.11, "unit": "%"}, {"measurement": "viability, T/C", "setting": "second compound 10 µM, first compound 0.000949 µM", "result": 23.3, "unit": "%"}, {"measurement": "viability, T/C", "setting": "second compound 10 µM, first compound 0.003 µM", "result": 2.73, "unit": "%"}, {"measurement": "viability, T/C", "setting": "second compound 10 µM, first compound 0.00949 µM", "result": 0.85, "unit": "%"}, {"measurement": "viability, T/C", "setting": "second compound 10 µM, first compound 0.03 µM", "result": 0.4, "unit": "%"}, {"measurement": "viability, T/C", "setting": "second compound 10 µM, first compound 0.0949 µM", "result": 0.82, "unit": "%"}, {"measurement": "viability, T/C", "setting": "second compound 10 µM, first compound 0.3 µM", "result": 1.17, "unit": "%"}]}
{"smiles": "CC(=O)O[C@H]1C(=O)[C@@]2(C)[C@H]([C@H](OC(=O)c3ccccc3)[C@]3(O)C[C@H](OC(=O)[C@H](O)[C@@H](NC(=O)c4ccccc4)c4ccccc4)C(C)=C1C3(C)C)[C@]1(OC(C)=O)CO[C@@H]1C[C@@H]2O", "note": "+ CNC(=O)c1ccc(Nc2nc(OC3CCCC3)c3c(-c4ccc5nc(C)oc5c4)c[nH]c3n2)c(OC)c1", "values": [{"measurement": "IC50", "setting": "[1]", "result": "< 31.6", "unit": "nM"}, {"measurement": "IC50", "setting": "[2]", "result": "< 31.6", "unit": "nM"}, {"measurement": "IC50", "setting": "[3]", "result": "< 31.6", "unit": "nM"}, {"measurement": "IC50", "setting": "[4]", "result": "< 31.6", "unit": "nM"}, {"measurement": "IC50", "setting": "[5]", "result": "< 31.6", "unit": "nM"}, {"measurement": "IC50", "setting": "[6]", "result": "< 31.6", "unit": "nM"}, {"measurement": "viability, T/C", "setting": "second compound 0.0316 µM, first compound 0.0316 µM", "result": 32.5, "unit": "%"}, {"measurement": "viability, T/C", "setting": "second compound 0.0316 µM, first compound 0.1 µM", "result": 37.6, "unit": "%"}, {"measurement": "viability, T/C", "setting": "second compound 0.0316 µM, first compound 0.316 µM", "result": 37.8, "unit": "%"}, {"measurement": "viability, T/C", "setting": "second compound 0.0316 µM, first compound 1 µM", "result": 36.5, "unit": "%"}, {"measurement": "viability, T/C", "setting": "second compound 0.0316 µM, first compound 3.16 µM", "result": 37.3, "unit": "%"}, {"measurement": "viability, T/C", "setting": "second compound 0.0316 µM, first compound 10 µM", "result": 43.6, "unit": "%"}, {"measurement": "viability, T/C", "setting": "second compound 0.1 µM, first compound 0.0316 µM", "result": 51.2, "unit": "%"}, {"measurement": "viability, T/C", "setting": "second compound 0.1 µM, first compound 0.1 µM", "result": 45.7, "unit": "%"}, {"measurement": "viability, T/C", "setting": "second compound 0.1 µM, first compound 0.316 µM", "result": 45.6, "unit": "%"}, {"measurement": "viability, T/C", "setting": "second compound 0.1 µM, first compound 1 µM", "result": 42.8, "unit": "%"}, {"measurement": "viability, T/C", "setting": "second compound 0.1 µM, first compound 3.16 µM", "result": 49.8, "unit": "%"}, {"measurement": "viability, T/C", "setting": "second compound 0.1 µM, first compound 10 µM", "result": 50.9, "unit": "%"}, {"measurement": "viability, T/C", "setting": "second compound 0.316 µM, first compound 0.0316 µM", "result": 41.5, "unit": "%"}, {"measurement": "viability, T/C", "setting": "second compound 0.316 µM, first compound 0.1 µM", "result": 45.6, "unit": "%"}, {"measurement": "viability, T/C", "setting": "second compound 0.316 µM, first compound 0.316 µM", "result": 43.8, "unit": "%"}, {"measurement": "viability, T/C", "setting": "second compound 0.316 µM, first compound 1 µM", "result": 41.4, "unit": "%"}, {"measurement": "viability, T/C", "setting": "second compound 0.316 µM, first compound 3.16 µM", "result": 47.8, "unit": "%"}, {"measurement": "viability, T/C", "setting": "second compound 0.316 µM, first compound 10 µM", "result": 45.9, "unit": "%"}, {"measurement": "viability, T/C", "setting": "second compound 1 µM, first compound 0.0316 µM", "result": 32.2, "unit": "%"}, {"measurement": "viability, T/C", "setting": "second compound 1 µM, first compound 0.1 µM", "result": 31, "unit": "%"}, {"measurement": "viability, T/C", "setting": "second compound 1 µM, first compound 0.316 µM", "result": 33.2, "unit": "%"}, {"measurement": "viability, T/C", "setting": "second compound 1 µM, first compound 1 µM", "result": 35.4, "unit": "%"}, {"measurement": "viability, T/C", "setting": "second compound 1 µM, first compound 3.16 µM", "result": 36, "unit": "%"}, {"measurement": "viability, T/C", "setting": "second compound 1 µM, first compound 10 µM", "result": 40.8, "unit": "%"}, {"measurement": "viability, T/C", "setting": "second compound 3.16 µM, first compound 0.0316 µM", "result": 23.1, "unit": "%"}, {"measurement": "viability, T/C", "setting": "second compound 3.16 µM, first compound 0.1 µM", "result": 22.9, "unit": "%"}, {"measurement": "viability, T/C", "setting": "second compound 3.16 µM, first compound 0.316 µM", "result": 24.7, "unit": "%"}, {"measurement": "viability, T/C", "setting": "second compound 3.16 µM, first compound 1 µM", "result": 26.6, "unit": "%"}, {"measurement": "viability, T/C", "setting": "second compound 3.16 µM, first compound 3.16 µM", "result": 30.4, "unit": "%"}, {"measurement": "viability, T/C", "setting": "second compound 3.16 µM, first compound 10 µM", "result": 33.6, "unit": "%"}, {"measurement": "viability, T/C", "setting": "second compound 10 µM, first compound 0.0316 µM", "result": 21.6, "unit": "%"}, {"measurement": "viability, T/C", "setting": "second compound 10 µM, first compound 0.1 µM", "result": 21, "unit": "%"}, {"measurement": "viability, T/C", "setting": "second compound 10 µM, first compound 0.316 µM", "result": 23.4, "unit": "%"}, {"measurement": "viability, T/C", "setting": "second compound 10 µM, first compound 1 µM", "result": 26.1, "unit": "%"}, {"measurement": "viability, T/C", "setting": "second compound 10 µM, first compound 3.16 µM", "result": 25.3, "unit": "%"}, {"measurement": "viability, T/C", "setting": "second compound 10 µM, first compound 10 µM", "result": 30, "unit": "%"}]}
{"smiles": "CC(CO)NC(=O)c1cc(-c2ccc(Cl)cc2)nn(-c2cnn(C)c2)c1=O", "note": "(stereo unspecified)", "values": [{"measurement": "viability, T/C", "setting": "compound 0.0316 µM", "result": "85% and 116%"}, {"measurement": "viability, T/C", "setting": "compound 0.1 µM", "result": "92.3% and 95.9%"}, {"measurement": "viability, T/C", "setting": "compound 0.316 µM", "result": "79.3% and 80.6%"}, {"measurement": "viability, T/C", "setting": "compound 1 µM", "result": "88.4% and 76.2%"}, {"measurement": "viability, T/C", "setting": "compound 3.16 µM", "result": "71.6% and 78.7%"}, {"measurement": "viability, T/C", "setting": "compound 10 µM", "result": "56% and 64.9%"}, {"measurement": "IC50", "setting": "curve of compound", "result": "> 10000", "unit": "nM"}]}
